For 25 compounds, Activity results are on record in ChEMBL document CHEMBL3044750, “Preparation of N-substituted aryl and alkyl carbamates and their inhibitory effect on oat seed germination” (2002).

Assay [1] has as its system Avena sativa. The experiment in a line: Inhibition of Avena sativa var. Zenshin seed germination assessed as root length at 1 uM after 6 days (reference value: 7 cm). It counts as functional.
Assay [2] has as its system Avena sativa. In words: Inhibition of Avena sativa var. Zenshin seed germination assessed as coleoptile length at 1 uM after 6 days (reference value: 9.5 cm). It counts as functional.

`O=C(Nc1ccccc1)Oc1ccccc1` [PHENYL PHENYLCARBAMATE]: the Activity with Avena sativa [1] was 1.9 cm; in the assay with Avena sativa [2], 4.7 cm.

On to `CC(C)OC(=O)Nc1cccc(Cl)c1` [CHLORPROPHAM], for which the Activity in the assay on Avena sativa [1] and in the assay on Avena sativa [2] was 0 cm each time.

Take `O=C(Nc1ccccc1)OC/C=C/c1ccccc1` [CINNAMYL PHENYLCARBAMATE]: the Activity with Avena sativa [1] turned out to be 0.4 cm; with Avena sativa [2], 3.4 cm.

Take `O=C(NCSc1ccccc1)OC/C=C/c1ccccc1` [CINNAMYL PHENYLTHIOMETHYLCARBAMATE]: the Activity with Avena sativa [1] stood at 2.6 cm; in the assay on Avena sativa [2], 2.2 cm.

`O=C(NCSc1ccccc1)OCCCc1ccccc1` [3-PHENYLPROPYL PHENYLTHIOMETHYLCARBAMATE]: the Activity with Avena sativa [1] was 3.9 cm; in the assay with Avena sativa [2], 4.6 cm.

In the case of `CC(C)OC(=O)NCSc1ccccc1` [ISOPROPYL PHENYLTHIOMETHYLCARBAMATE], the Activity with Avena sativa [1] and in the assay on Avena sativa [2] was 0 cm throughout.

For `O=C(Nc1ccc(Cl)cc1)Oc1ccccc1` [PHENYL 4-CHLOROPHENYLCARBAMATE], the Activity with Avena sativa [1] came to 4.1 cm; with Avena sativa [2] it was 8.1 cm.

As for `O=C(NCSc1ccccc1)Oc1ccccc1` [PHENYL PHENYLTHIOMETHYLCARBAMATE], the Activity in the assay with Avena sativa [1] and in the assay on Avena sativa [2] was 0 cm in each case.

As to `COc1ccc(COC(=O)NCSc2ccccc2)cc1` [4-METHOXYBENZYL PHENYLTHIOMETHYLCARBAMATE], the figures for the Activity with Avena sativa [1] and with Avena sativa [2] were 0.9 cm and 1.4 cm, respectively.

In the case of `O=C(Nc1ccc(F)cc1)Oc1ccccc1` [PHENYL 4-FLUOROPHENYLCARBAMATE], the Activity was found to be 4.8 cm with Avena sativa [1] and 6.4 cm in the assay with Avena sativa [2].

As for `O=C(Nc1ccccc1)OCCc1ccccc1` [PHENETHYL PHENYLCARBAMATE], the values for the Activity in the assay with Avena sativa [1] and in the assay with Avena sativa [2] were 0.2 cm and 0.3 cm, respectively.

Consider `CCOC(=O)NCSc1ccccc1` [ETHYL PHENYLTHIOMETHYLCARBAMATE], for which the Activity in the assay with Avena sativa [1] amounted to 1 cm; in the assay on Avena sativa [2] it was 0.8 cm.

Take `O=C(NCSc1ccccc1)OCCc1ccccc1` [PHENETHYL PHENYLTHIOMETHYLCARBAMATE]: the Activity with Avena sativa [1] and in the assay with Avena sativa [2] was 0 cm throughout.

For the compound `Cc1cccc(NC(=O)Oc2ccccc2)c1` [PHENYL M-TOLYLCARBAMATE], the Activity in the assay with Avena sativa [1] worked out at 4.4 cm; in the assay with Avena sativa [2], 5.6 cm.

For the compound `O=C(NCCc1ccccc1)OCc1ccccc1` [BENZYL PHENETHYLCARBAMATE], the results for the Activity in the assay on Avena sativa [1] and with Avena sativa [2] were 2.8 cm and 5.2 cm, respectively.

As for `O=C(Nc1ccccc1)OCCCCc1ccccc1` [4-PHENYLBUTYL PHENYLCARBAMATE], the Activity is 1.2 cm with Avena sativa [1] and 4.9 cm in the assay on Avena sativa [2].

As to `COC(=O)NCSc1ccccc1` [METHYL PHENYLTHIOMETHYLCARBAMATE], the Activity with Avena sativa [1] and in the assay with Avena sativa [2] was 0 cm in each case.

For the compound `CCCOC(=O)NCSc1ccccc1` [PROPYL PHENYLTHIOMETHYLCARBAMATE], the Activity with Avena sativa [1] is recorded as 1.4 cm; in the assay on Avena sativa [2], 1.7 cm.

On to `COc1ccc(NC(=O)Oc2ccccc2)cc1` [PHENYL 4-METHOXYPHENYLCARBAMATE], for which the Activity was 7.7 cm in the assay on Avena sativa [1] and 8.3 cm with Avena sativa [2].

As to `O=C(NCSc1ccccc1)Oc1ccc(Cl)cc1Cl` [2,4-DICHLOROPHENYL PHENYLTHIOMETHYLCARBAMATE], the Activity in the assay on Avena sativa [1] and in the assay on Avena sativa [2] was 0 cm in each case.

On to `O=C(Nc1ccccc1)OCCCCCc1ccccc1` [5-PHENYLPENTYL PHENYLCARBAMATE], for which the Activity in the assay on Avena sativa [1] is listed as 2.1 cm; with Avena sativa [2] it was 6.6 cm.

Turning to `O=C(NCSc1ccccc1)OCc1ccccc1` [BENZYL PHENYLTHIOMETHYLCARBAMATE], the Activity in the assay on Avena sativa [1] and with Avena sativa [2] was 0 cm throughout.

Turning to `O=C(Nc1ccccc1)OCCCc1ccccc1` [3-PHENYLPROPYL PHENYLCARBAMATE], the values for the Activity with Avena sativa [1] and with Avena sativa [2] were 1.9 cm and 3.5 cm, respectively.

As for `O=C(Nc1ccccc1)OCc1ccccc1` [BENZYL PHENYLCARBAMATE], the Activity in the assay with Avena sativa [1] stood at 1.2 cm; with Avena sativa [2] it was 2.8 cm.

With `CCCCOC(=O)NCSc1ccccc1` [BUTYL PHENYLTHIOMETHYLCARBAMATE], the Activity with Avena sativa [1] amounted to 3.4 cm; in the assay with Avena sativa [2], 2.6 cm.
